Earlier results in patent publication US20240197646A1, “DRUG DELIVERY SYSTEM AND METHODS OF USING THE SAME” (Axogen Corporation, priority 2022, published 2024).

Details: stated reference level, no source or test given

C=CC[C@@H]1/C=C(\C)C[C@H](C)C[C@H](OC)[C@H]2O[C@@](O)(C(=O)C(=O)N3CCCC[C@H]3C(=O)O[C@H](/C(C)=C/[C@@H]3CC[C@@H](O)[C@H](OC)C3)[C@H](C)[C@@H](O)CC1=O)[C@H](C)C[C@@H]2OC [FK506]
toxic dose: about 5 mg/ml
